Data: patent US12281084B2, “Acetyl-CoA synthetase 2 (ACSS2) inhibitors and methods using same” (The Wistar Institute, priority 2019, dated 2025)
“Also recorded” adds a separate entry of the source.

Experiments:
BT474 cells = test: 13C2-acetate tracing in BT474 cells; type: cell-based, human
Method: (§1) All metabolomic experiments were performed in serum-like modified Eagle's medium (SMEM). SMEM contains 54 different nutrients that are found in the bloodstream at concentrations that are physiologically relevant to humans. SMEM was supplemented with 10% or 1% fetal bovine serum (FBS; Life Technologies). Cells were grown in normoxia (atmospheric oxygen) or hypoxia (1% oxygen) while being incubated in uniformly labeled ^13C2-acetate (0.100 mM; Cambridge Isotope Laboratories). Lengths of incubation are described in the figure legends. For extraction of metabolites from cultured cells, SMEM medium was aspirated and cells were washed once in ice-cold PBS. Metabolites were extracted by adding a solution of LC-MS grade methanol/acetonitrile/water (5:3:2) to the well. Plates were incubated at 4° C. for 5 minutes on a rocker and then the extraction solution was collected. The metabolite extract was cleared by centrifugation at 15,000×g for 10 minutes at 4° C. Supernatants were transferred to LC-MS silanized glass vials with PTFE caps and either run immediately on the LC-MS or stored at −80° C. […]
(§2) LC-MS analysis was performed on a Q Exactive Hybrid Quadrupole-Orbitrap HF-X MS (ThermoFisher Scientific) equipped with a HESI II probe and coupled to a Vanquish Horizon UHPLC system (ThermoFisher Scientific). […] Samples were analyzed in full MS scan with polarity switching at scan range 65 to 975 m/z; 120,000 resolution; automated gain control (AGC) target of 1E6; and maximum injection time (max IT) of 100 milliseconds. Identification and quantitation of metabolites was performed using an annotated compound library and TraceFinder 4.1 software. […]
The ^13C2-acetate tracer studies were repeated in BT474 and MDA-MB-468 cells and polar metabolites were isolated in order to analyze carbon-13 labeling of the cytosolic metabolite UDP-N-acetylglucosamine (UDP-GlcNAc) and the mitochondrial metabolite citrate. Citrate is a readout of ACSS1 and ACSS3 activity in the cells since they are the mitochondria localized AcCoA synthetase family members (FIG. 11A). […]

MDA-MB-468 cells = test: 13C2-acetate tracing in MDA-MB-468 cells; type: cell-based, human; settings: MDA-MB-468 cells (FIG. 11D)
Method: as §1, with “well.” for “well. Plates were incubated at 4° C. for 5 minutes on a rocker and then the extraction solution was collected. The metabolite extract was cleared by centrifugation at 15,000×g for 10 minutes at 4° C. Supernatants were transferred to LC-MS silanized glass vials with PTFE caps and either run immediately on the LC-MS or stored at −80° C.”
as §2

Brpkp110 tumors = test: Brpkp110 tumor xenograft growth in NSG mice; type: in vivo, mouse; settings: daily intraperitoneal injection for two weeks, 100 mg/kg (FIG. 5E)
Method: (§3) For BT474 mouse xenograft studies 5-6 week old female NSG […] were anesthetized and one 17β-estradiol 60 day release pellet (Innovative Research of America Cat. No. SE-121) was injected subcutaneously via 10 gauge precision trochar into the lateral side of the neck between the ear and shoulder. 24 hours later 10^5 BT474 luciferase positive cells in 100 μl PBS:matrigel (growth factor reduced) were injected subcutaneously into the hind limb. For A7C11 and Brpkp110 xenografts, 5×10^5 cells in 100 μl PBS:Matrigel (growth factor reduced Corning Cat. No. 356231) were subcutaneously injected into the hindlimb of 5-6 week old female NSG mice […]. Following tumor establishment in all groups, mice were randomized and treated intraperitoneally (IP) daily with vehicle (10% DMSO, 10% absolute ethanol, 20% solutol, 60% water containing 0.5% Tween20) or 100 mg/kg VY-3-135 as indicated in the figure legend. Tumors were measured thrice weekly via caliper measurement and tumor volume calculated as (L×W^2)/2 (where L is the longer of the 2 measurements). At the study conclusion all tumors were resected and processed fresh or flash frozen in liquid nitrogen and stored at −80° C. for downstream analysis.
Tumor bearing mice were given daily intraperitoneal injection of VY-3-135 for two weeks. […]

sgACSS2 Brpkp110 tumors = test: sgACSS2 (Acss2 knockout) Brpkp110 tumor xenograft growth in NSG mice; type: in vivo, mouse; settings: tumors lacking ACSS2 expression (FIG. 5F)
Excerpt: CRISPR-Cas9 pools of Brpkp110 and A7C11 were generated using single guide RNAs against exon 1 in mouse Acss2. Cas9 and guide RNAs were introduced into Brpkp110 and A7C11 cell by lentiviral infection. Briefly, HEK293T cells were transfected (Lipofectamine 2000) with psPAX2, pVSV-G, and pLentiCRISPRV2-blast containing a single guide RNA cloned into the BsmBI site (GE Healthcare). Transduced pools of Brkp110 and A7C11 cells were selected using blasticidin S.
as §3, with “Following tumor establishment in all groups, mice were randomized and treated intraperitoneally (IP) daily with vehicle (10% DMSO, 10% absolute ethanol, 20% solutol, 60% water containing 0.5% Tween20) or 100 mg/kg VY-3-135 as indicated in the figure legend.” left out, “At the study conclusion all tumors were resected and processed fresh or flash frozen in liquid nitrogen and stored at −80° C. for downstream analysis.” left out

BT474 tumors = test: In vivo 13C2-acetate tracing in BT474 tumors; set-up: species or system mouse
Method: as §1, §2
On-target activity of VY-3-135 in the tumor was probed. […] Tumor lipid extracts were saponified and the resulting fatty acids were analyzed by LC-MS. Likewise, polar metabolites were extracted from matching tumor samples and analyzed by LC-MS. […] Isotopologs ≥M+10 were not detected in tumors from VY-3-135 treated mice.

SMILES: CCn1c(C(O)(c2ccccc2)c2ccccc2)nc2ccc(C(=O)NC[C@@H](C)O)cc21 [VY-3-135, (R)-1-ethyl-2-(hydroxydiphenylmethyl)-N-(2-hydroxypropyl)-1H-benzo[d]imidazole-6-carboxamide]
- incorporation of 13C2-acetate into UDP-GlcNAc (BT474 cells; BT474 cells (FIG. 11C)): able to block incorporation of ^13C2-acetate into UDP-GlcNAc to nearly the levels of unlabeled cells
- incorporation of 13C2-acetate into citrate (BT474 cells; BT474 cells, H1, 24 hr (FIG. 2D), readout of ACSS1 and ACSS3): did not decrease incorporation of ^13C2-acetate into citrate
- use of acetate as a substrate for fatty acid synthesis (13C2-acetate into palmitate) (BT474 cells; BT474 cells, hypoxia and low lipid medium, 24 hours (FIG. 2C)): markedly inhibits the use of acetate as a substrate for fatty acid synthesis at low nanomolar concentrations
- incorporation of 13C2-acetate into UDP-GlcNAc (MDA-MB-468 cells): able to block incorporation of ^13C2-acetate into UDP-GlcNAc to nearly the levels of unlabeled cells
- Brpkp110 tumor growth (Brpkp110 tumors): causes a significant decrease in Brpkp110 tumor growth; also recorded: caused significant reduction in Brpkp110 tumor growth
- sgACSS2 Brpkp110 tumor growth (sgACSS2 Brpkp110 tumors): did not further affect the growth of Brpkp110 sgACSS2 tumors; also recorded: no further effect on tumor growth
- 13C2-acetate labeling of citrate in tumors (BT474 tumors; BT474 tumors (FIG. 6D)): no effect was observed
- palmitate isotopologs ≥M+10 in tumors (BT474 tumors; BT474 tumors from treated mice): not detected
- 13C labeling of palmitate in tumors (BT474 tumors; BT474 tumors, 13C2-acetate in drinking water 48 hours (FIG. 6C)): caused a significant decrease in the ^13C labeling of palmitate
